Experimental data published in patent US20110039885A1, “METHODS FOR INCREASING ENDOTHELIAL PROGENITOR CELLS” (FibroGen, Inc., priority 2007, published 2011).

Key:
Assay type in all cases: in vivo, mouse
[1] = system: colony-forming unit-endothelial cells (CFU-EC) from blood; test: EPC colony forming assay (CFU-EC) ex vivo, blood of dosed mice; conditions: for Blood CFU-EC: blood 6 h after final dose, 12 days culture; for Blood CFU-EC Fold Increase Over Control: vs vehicle control
Procedure: To examine the effect of compounds and methods of the present invention on increasing EPCs, wherein the EPCs are functional EPCs, i.e., EPCs that are able to differentiate into mature endothelial cells, the following studies were performed in which the frequency of endothelial colony-forming cells was evaluated ex vivo. In one series of experiments, male Swiss-Webster mice were administered various compounds of the present invention via oral gavage using a ball-tipped gavage needle. Animals treated by oral gavage received a 10 ml/kg volume of either 0.5% carboxymethyl cellulose (CMC) with 0.1% Polysorbate 80 (vehicle control) or various doses (10-100 mg/kg) of a compound of the present invention in 0.5% CMC with 0.1% Polysorbate 80. Animals were dosed once daily for 3 or 4 days. Six hours after the final dosing, 200 μl blood samples were collected for analysis of EPC function and differentiation using an EPC colony forming assay. EPC colony forming assays were carried out as previously described. (Murphy et al. (2007) Arterioscler Thromb Vasc Biol 27:936-942.) Briefly, mononuclear cells were isolated from whole blood samples by erythrocyte depletion using red blood cell lysis buffer (eBioscience) according to the manufacturer's instructions. The remaining cells (50,000 cells/well) were plated on fibronectin coated 24-well dishes (BD, BioSciences Discovery Labware) and incubated in endothelial growth media (EGM-2 media, Cambrex) for 12 days. At the end the incubation period, EPC colonies were counted.

[2] = system: endothelial progenitor cells (EPCs), KDR+/CD34+ cells, in bone marrow; test: Bone marrow EPC levels by FACS after oral dosing in mice; conditions: for Percent Bone Marrow EPCs: tibia bone marrow 6 h after final dose; for Percent Bone Marrow EPCs Fold Increase Over Control: vs vehicle control
Procedure: (§1) To examine the effect of compounds and methods of the present invention on endothelial progenitor cell (EPC) mobilization and EPC levels, the following studies were performed. Male Swiss-Webster mice were administered various compounds of the present invention via oral gavage using a ball-tipped gavage needle. Animals treated by oral gavage received a 10 ml/kg volume of either 0.5% carboxymethyl cellulose (CMC) with 0.1% Polysorbate 80 (vehicle control) or various doses (10-100 mg/kg) of a compound of the present invention in 0.5% CMC with 0.1% Polysorbate 80. Animals were dosed once daily for 3 or 4 days. Six hours after the final dosing, 200 μl blood samples were collected for detection of EPCs by FACS analysis as previously described. (Vasa et al. (2001) Circ Res 89:e1-e7.) Briefly, mononuclear cells were isolated from whole blood samples by erythrocyte depletion using red blood cell lysis buffer (eBioscience) according to the manufacturer's instructions. The remaining cells were incubated for one hour with monoclonal antibodies directed against mouse CD34 and mouse KDR, cell surface markers for EPCs (BD Pharmingen). Following incubation with the anti-CD34 and anti-KDR monoclonal antibodies, the samples were washed three times with sort buffer (PBS, 1% fetal bovine serum) and resuspended in sort buffer containing 50 μg/ml of propidium iodide. Samples were then analyzed for the presence and quantitation of EPCs by flow cytometry (FACS Calibur, Becton Dickinson). The cytometer was set to acquire 10 000 events. Two or three samples obtained from each animal were analyzed and the average recorded. EPCs were determined as double positive KDR+/CD34+ cells.
To examine the effect of compounds and methods of the present invention on EPC levels in bone marrow, the following studies were performed. Male Swiss-Webster mice were administered various compounds of the present invention via oral gavage using a ball-tipped gavage needle. Animals treated by oral gavage received a 10 ml/kg volume of either 0.5% carboxymethyl cellulose (CMC) with 0.1% Polysorbate 80 (vehicle control) or various doses (10-100 mg/kg) of a compound of the present invention in 0.5% CMC with 0.1% Polysorbate 80. Animals were dosed once daily for 3 or 4 days. Six hours after the final dosing, bone marrow samples were taken from one tibia of each animal and suspended in buffer (PBS with 1% fetal bovine serum). Bone marrow suspensions were then filtered through nylon filters to remove stromal cells. Following filtration, the remaining cells were counted manually using a hemocytometer. Detection and quantitation of EPCs was performed by FACS analysis as described above in Example 1.

[3] = system: colony-forming unit-endothelial cells (CFU-EC) from bone marrow; test: EPC colony forming assay (CFU-EC) ex vivo, bone marrow of dosed mice; conditions: for Bone Marrow CFU-EC: tibia bone marrow 6 h after final dose, 12 days culture; for Bone Marrow CFU-EC Fold Increase Over Control: vs vehicle control
Procedure: EPC colony forming assays were carried out as previously described. (Murphy et al. (2007) Arterioscler Thromb Vasc Biol 27:936-942.) Briefly, mononuclear cells were isolated from whole blood samples by erythrocyte depletion using red blood cell lysis buffer (eBioscience) according to the manufacturer's instructions. The remaining cells (50,000 cells/well) were plated on fibronectin coated 24-well dishes (BD, BioSciences Discovery Labware) and incubated in endothelial growth media (EGM-2 media, Cambrex) for 12 days. At the end the incubation period, EPC colonies were counted. In another series of experiments, male Swiss-Webster mice were administered various compounds of the present invention via oral gavage using a ball-tipped gavage needle. Animals treated by oral gavage received a 10 ml/kg volume of either 0.5% carboxymethyl cellulose (CMC) with 0.1% Polysorbate 80 (vehicle control) or various doses (10-100 mg/kg) of a compound of the present invention in 0.5% CMC with 0.1% Polysorbate 80. Animals were dosed once daily for 3 or 4 days. Six hours after the final dosing, bone marrow samples were taken from one tibia of each animal. Bone marrow samples were then analyzed for EPC function and differentiation using an EPC colony forming assay as described above.

[4] = system: endothelial progenitor cells (EPCs), double positive KDR+/CD34+ cells, in blood; test: Blood EPC levels by FACS after oral dosing in mice; conditions: for Blood EPCs / Percent Blood EPCs: blood 6 h after final dose; for Blood EPCs Fold Increase Over Control / Percent Blood EPCs Fold Increase Over Control: vs vehicle control
Procedure: as §1

[5] = 20 mg/kg oral gavage once daily, 3 days
[6] = 20 mg/kg oral gavage once daily, 4 days
[7] = 60 mg/kg oral gavage once daily, 3 days
[8] = 60 mg/kg oral gavage once daily, 4 days

Cc1cccc(C)c1Oc1ccc2c(C#N)nc(C(=O)NCC(=O)O)c(O)c2c1 [Compound C, {[1-Cyano-6-(2,6-dimethyl-phenoxy)-4-hydroxy-isoquinoline-3-carbonyl]-amino}-acetic acid]
Blood CFU-EC [1, 5]: 7.7 colonies/50,000 cells | Blood CFU-EC [1, 6]: 5.6 colonies/50,000 cells | Blood CFU-EC Fold Increase Over Control ([1]; 20 mg/kg oral, 3 days): 4.3 fold | Blood CFU-EC Fold Increase Over Control ([1]; 20 mg/kg oral, 4 days): 4.3 fold | Blood CFU-EC [1, 7]: 7.4 colonies/50,000 cells | Blood CFU-EC [1, 8]: 6.6 colonies/50,000 cells | Blood CFU-EC Fold Increase Over Control ([1]; 60 mg/kg oral, 3 days): 4.14 fold | Blood CFU-EC Fold Increase Over Control ([1]; 60 mg/kg oral, 4 days): 5.1 fold | Percent Bone Marrow EPCs [2, 5]: 2.2 % gated cells | Percent Bone Marrow EPCs [2, 6]: 0.6 % gated cells | Percent Bone Marrow EPCs Fold Increase Over Control ([2]; 20 mg/kg oral, 3 days): 2.2 fold | Percent Bone Marrow EPCs Fold Increase Over Control ([2]; 20 mg/kg oral, 4 days): 0.9 fold | Percent Bone Marrow EPCs [2, 7]: 3.2 % gated cells | Percent Bone Marrow EPCs [2, 8]: 0.9 % gated cells | Percent Bone Marrow EPCs Fold Increase Over Control ([2]; 60 mg/kg oral, 3 days): 3.2 fold | Percent Bone Marrow EPCs Fold Increase Over Control ([2]; 60 mg/kg oral, 4 days): 1.4 fold | Bone Marrow CFU-EC [3, 5]: 25.7 colonies/50,000 cells | Bone Marrow CFU-EC [3, 6]: 26.0 colonies/50,000 cells | Bone Marrow CFU-EC Fold Increase Over Control ([3]; 20 mg/kg oral, 3 days): 5.1 fold | Bone Marrow CFU-EC Fold Increase Over Control ([3]; 20 mg/kg oral, 4 days): 1.9 fold | Bone Marrow CFU-EC [3, 7]: 28.0 colonies/50,000 cells | Bone Marrow CFU-EC [3, 8]: 61.0 colonies/50,000 cells | Bone Marrow CFU-EC Fold Increase Over Control ([3]; 60 mg/kg oral, 3 days): 5.6 fold | Bone Marrow CFU-EC Fold Increase Over Control ([3]; 60 mg/kg oral, 4 days): 4.5 fold | Blood EPCs [4, 5]: 151.9 cells/μl | Percent Blood EPCs [4, 5]: 1.3 % gated cells | Blood EPCs [4, 6]: 125.9 cells/μl | Percent Blood EPCs [4, 6]: 0.7 % gated cells | Blood EPCs Fold Increase Over Control ([4]; 20 mg/kg oral, 3 days): 4.2 fold | Percent Blood EPCs Fold Increase Over Control ([4]; 20 mg/kg oral, 3 days): 1.8 fold | Blood EPCs Fold Increase Over Control ([4]; 20 mg/kg oral, 4 days): 2.5 fold | Percent Blood EPCs Fold Increase Over Control ([4]; 20 mg/kg oral, 4 days): 1.0 fold | Blood EPCs [4, 7]: 195.1 cells/μl | Percent Blood EPCs [4, 7]: 1.4 % gated cells | Blood EPCs [4, 8]: 240.0 cells/μl | Percent Blood EPCs [4, 8]: 1.0 % gated cells | Blood EPCs Fold Increase Over Control ([4]; 60 mg/kg oral, 3 days): 5.4 fold | Percent Blood EPCs Fold Increase Over Control ([4]; 60 mg/kg oral, 3 days): 1.9 fold | Blood EPCs Fold Increase Over Control ([4]; 60 mg/kg oral, 4 days): 4.7 fold | Percent Blood EPCs Fold Increase Over Control ([4]; 60 mg/kg oral, 4 days): 1.3 fold
